Data from patent publication US20030236218A1, “Aryl phosphate derivatives of d4T with selective activity against adenovirus and HIV” (priority 2002, published 2003).

Columns and labels:
Stability in whole blood = format: in vitro ADME
Experimental: The whole blood samples were placed in a 37° C. water bath, while plasma samples were stored at −20° C. At a predetermined time, an aliquot (100 μl) of spiked whole blood or plasma was extracted by adding 400 μl of acetone to induce precipitation of proteins, as described above.

[1] = Stability in murine liver homogenates; format: in vitro ADME, Balb/c mice; conditions: 100 μM; Balb/c mouse liver homogenate
Experimental: At a predetermined time, an aliquot (100 μl) of spiked liver homogenate was extracted by adding 400 μl of acetone to induce precipitation of proteins, as described above.

[2] = Stability in plasma in the presence of selective esterase inhibitors; conditions: 250 μM
[3] = rats, cited from earlier work
[4] = cats; twice daily hard gelatin capsules 25 mg/kg -100 mg/kg; cumulative dose levels as high as 8.4 g/kg; cited from earlier work
skin fibroblasts = experiment: Cytotoxicity in skin fibroblasts (plaque assay); format: cell-based; conditions: ADV plaque formation assay
Experimental: Plaque formation assays. Plaque assays were used to examine the activity of the compounds against non-HIV viruses. The skin fibroblast cell line SF (ATCC CRL-2097) was used as a target for AD169, Adenovirus Type 5. […] cell line (ATCC CCL-81) was used as a target for HSV HF and G. The HEP-2 cell line (ATCC CCL-23) was used as a target for the RSV strain Long. These cell lines were cultured at 1×10^5 cells/well in 24-well (all but ECHO 30-infected SF) or 6-well (ECHO 30-infected SF) tissue culture plates with 0.9% methylcellulose or 0.4% SeaPlaque agarose semisolid support. Minimum Essential Medium (MEM) with Earle's salts (Gibco), L-glutamine, non-essential amino acids, 2% heat-inactivated fetal bovine serum, 1% penicillin/streptomycin, and 0.05% gentamicin served as the culture medium. The incubation times were 3 days for HF, G, ECHO 30, and Long; and 7 days for AD169 and Adenovirus Type 5. […] Percent inhibition of plaque formation was calculated by comparing the plaque numbers from the test substance-treated infected cells with the plaque numbers from untreated infected cells (i.e., virus controls). The IC50 values were determined using the Statview statistics program (SAS Institute, Inc., Cary, N.C.).

COC(=O)C(C)NP(=O)(OC[C@@H]1C=C[C@H](n2cc(C)c(=O)[nH]c2=O)O1)Oc1ccc(Br)cc1 (stereo partly shown) [Compound 113, 5′-[4-Bromophenyl methoxylaninylphosphate]-2′, 3′-didehydro-3′-deoxy thymidine]
time to complete decomposition in whole blood (Stability in whole blood; 250 μM, 37° C.): ≤ 30 min | decomposed in whole blood (Stability in whole blood; 250 μM, 37° C., 5 minutes): 68% | decomposed in whole blood (Stability in whole blood; 250 μM, 37° C., 10 minutes): 87% | decomposed in whole blood (Stability in whole blood; 250 μM, 37° C., 15 minutes): 92% | stability in whole blood (in words) (Stability in whole blood; spiked whole blood 37° C., 250 μM compound 113, 100 μM Ala-d4T-MP (followed for 1 day)): very unstable | time to decomposition in liver homogenate [1]: ≤ 30 min | mean percent hydrolysis in plasma ([2]; EDTA (1 mM), arylesterase, 5 min): 99% | mean percent hydrolysis in plasma ([2]; EDTA (1 mM), arylesterase, 10 min): 100% | mean percent hydrolysis in plasma ([2]; EDTA (1 mM), arylesterase, 15 min): 100% | mean percent hydrolysis in plasma ([2]; EDTA (1 mM), arylesterase, 30 min): 100% | mean percent hydrolysis in plasma ([2]; EDTA (1 mM), arylesterase, 60 min): 100% | mean percent hydrolysis in plasma ([2]; EDTA (1 mM), arylesterase, 120 min): 100% | mean percent hydrolysis in plasma ([2]; No inhibitor, 5 min): 95% | mean percent hydrolysis in plasma ([2]; No inhibitor, 10 min): 98% | mean percent hydrolysis in plasma ([2]; No inhibitor, 15 min): 99% | mean percent hydrolysis in plasma ([2]; No inhibitor, 30 min): 100% | mean percent hydrolysis in plasma ([2]; No inhibitor, 60 min): 100% | mean percent hydrolysis in plasma ([2]; No inhibitor, 120 min): 100% | mean percent hydrolysis in plasma ([2]; Paraoxon (0.1 mM), cholinesterase & carboxylesterase, 5 min): 0% | mean percent hydrolysis in plasma ([2]; Paraoxon (0.1 mM), cholinesterase & carboxylesterase, 10 min): 2% | mean percent hydrolysis in plasma ([2]; Paraoxon (0.1 mM), cholinesterase & carboxylesterase, 15 min): 2% | mean percent hydrolysis in plasma ([2]; Paraoxon (0.1 mM), cholinesterase & carboxylesterase, 30 min): 2% | mean percent hydrolysis in plasma ([2]; Paraoxon (0.1 mM), cholinesterase & carboxylesterase, 60 min): 3% | mean percent hydrolysis in plasma ([2]; Paraoxon (0.1 mM), cholinesterase & carboxylesterase, 120 min): 24% | mean percent hydrolysis in plasma ([2]; Physostigmine (0.1 mM), cholinesterase, 5 min): 43% | mean percent hydrolysis in plasma ([2]; Physostigmine (0.1 mM), cholinesterase, 10 min): 65% | mean percent hydrolysis in plasma ([2]; Physostigmine (0.1 mM), cholinesterase, 15 min): 76% | mean percent hydrolysis in plasma ([2]; Physostigmine (0.1 mM), cholinesterase, 30 min): 89% | mean percent hydrolysis in plasma ([2]; Physostigmine (0.1 mM), cholinesterase, 60 min): 100% | mean percent hydrolysis in plasma ([2]; Physostigmine (0.1 mM), cholinesterase, 120 min): 100% | toxicity on daily administration ([3]; intraperitoneally or orally for up to 8 consecutive weeks, cumulative dose levels as high as 6.4 g/kg): not associated with any detectable toxicity | acute or subacute toxicity ([3]; single intraperitoneal or oral bolus dose levels as high as 500 mg/kg): very well tolerated without any detectable acute or subacute toxicity | tolerability of four-week treatment course [4]: very well tolerated | cytotoxicity (in words) (skin fibroblasts): without any evidence of cytotoxicity even at 100 μM
